Experimental data: patent publication US20240116985A1, “STAPLED PEPTIDES AND METHODS THEREOF” (priority 2020, published 2024)
Values after ≈ are worked out from the molar mass of the structure shown. Like-named read-outs stand apart in the source and are kept apart here.

Columns and labels:
[1] = target: T1, full-length beta-Catenin (Uniprot ID P35222) (Homo sapiens, UniProt P35222); assay: Fluorescence polarization IC50 (beta-catenin / 5FAM-TCF4 10-53 competition); format: binding
T1 construct: 10 nM full-length beta-Catenin (Uniprot ID P35222)
T1 sequence (P35222 1-781): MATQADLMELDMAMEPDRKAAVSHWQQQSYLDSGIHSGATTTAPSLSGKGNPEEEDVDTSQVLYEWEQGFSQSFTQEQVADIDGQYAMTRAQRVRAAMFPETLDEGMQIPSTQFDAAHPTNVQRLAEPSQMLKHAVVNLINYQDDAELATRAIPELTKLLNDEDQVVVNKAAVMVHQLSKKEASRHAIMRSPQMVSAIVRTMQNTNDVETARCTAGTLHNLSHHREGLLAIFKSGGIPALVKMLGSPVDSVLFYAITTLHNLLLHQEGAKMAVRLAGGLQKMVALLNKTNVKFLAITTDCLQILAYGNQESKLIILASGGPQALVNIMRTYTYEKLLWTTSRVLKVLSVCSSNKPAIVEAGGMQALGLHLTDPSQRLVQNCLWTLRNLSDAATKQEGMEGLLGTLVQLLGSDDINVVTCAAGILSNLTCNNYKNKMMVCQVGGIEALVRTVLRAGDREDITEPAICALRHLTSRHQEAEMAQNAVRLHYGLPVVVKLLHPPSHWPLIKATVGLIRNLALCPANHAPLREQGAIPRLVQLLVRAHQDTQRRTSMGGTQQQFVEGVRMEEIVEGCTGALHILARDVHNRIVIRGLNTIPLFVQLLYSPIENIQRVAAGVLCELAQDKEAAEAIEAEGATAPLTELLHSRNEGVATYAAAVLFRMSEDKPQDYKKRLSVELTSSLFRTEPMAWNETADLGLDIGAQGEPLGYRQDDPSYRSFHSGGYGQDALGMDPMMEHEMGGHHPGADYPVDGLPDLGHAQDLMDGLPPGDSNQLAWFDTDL

[2] = CHI Log D procedure; format: physicochemical; conditions: for chromatographic logD: pH 7.4, CHI Log D
[3] = Solubility in PBS; format: physicochemical
Outline: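 HPLC quantitation of peptide remaining in the PBS supernatant after ultracentrifugation, referenced to a 50 μM solution in DMSO.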

[4] = fluorescence polarization, read-out: beta-Catenin FP IC50

Row | IC50 [1, 4] [nM] | chromatographic logD [2] | Solubility ([3]; Solubility (uM)) [µM] | IC50 ([1]; Table E2-1, read-out: beta-Catenin FP IC50) [nM] | IC50 ([1]; fluorescence polarization, beta-catenin, read-out: FP EC50) [nM] | IC50 ([1]; read-out: beta-Catenin FP IC50) [nM] | CHI Log D ([2]; pH 7.4) | Solubility [3] [µM] | Structure (SMILES)
1 | 61 | 1.88 | 45 (≈ 86.9 µg/mL) |  |  |  |  |  | CC(=O)N1CCC[C@]12CC=CCCCC1(CCCC=CCCCOC(=O)N3CC[C@@](C(=O)N[C@@H](Cc4ccsc4)C(=O)N[C@@H](Cc4csc5ccccc45)C(=O)N[C@@H](CCC(N)=O)C(N)=O)(C3)NC(=O)[C@H](CC(N)=O)NC(=O)[C@H](Cc3ccccc3)NC(=O)[C@H](C)NC(=O)[C@H](C)NC(=O)[C@H](CC(=O)O)NC(=O)[C@H](CC(=O)O)NC1=O)NC(=O)[C@H](CC(C)(C)C)NC(=O)C[C@H](CC(=O)O)NC2=O (stereo partly drawn) [I-1159, Ac-PL3-RbGlu-Npg-B5-Asp-Asp-Ala-Ala-Phe-Asn-PyrS2-3Thi-BztA-Gln-NH2]
2 | 5000 | 2.86 | 47 (≈ 86.4 µg/mL) |  |  |  |  |  | CC(=O)N1CCC[C@]12CC=CCCCC1(CCCC=CCCCCCC[C@@](C)(C(=O)N[C@@H](Cc3ccccc3)C(=O)N[C@@H](Cc3csc4ccccc34)C(=O)N[C@@H](CCC(N)=O)C(N)=O)NC(=O)[C@H](C(C)C)NC(=O)[C@H](Cc3ccccc3)NC(=O)[C@H](C)NC(=O)[C@H](C)NC(=O)[C@H](CC(=O)O)NC(=O)[C@H](CC(=O)NC(C)C)NC1=O)NC(=O)[C@H](C)NC(=O)[C@H](CC(=O)O)NC2=O (stereo partly drawn) [I-535, Ac-PL3-Asp-Ala-B5-[NHiPr]AsnR-Asp-Ala-Ala-Phe-Val-S8-Phe-BztA-Gln-NH2]
3 |  | 1.69 | 49 (≈ 87.3 µg/mL) | 5000 |  |  |  |  | CC(=O)N1CCC[C@]12CC=CCCCC1(CCCC=CCCCCC[C@@](C)(C(=O)N[C@@H](Cc3ccccc3)C(=O)N[C@@H](Cc3c[nH]c4ccccc34)C(=O)N[C@@H](CCC(N)=O)C(N)=O)NC(=O)[C@H](C(C)C)NC(=O)[C@H](Cc3ccccc3)NC(=O)[C@H](C)NC(=O)[C@H](C)NC(=O)[C@H](CCC(=O)O)NC(=O)[C@H](CC(=O)O)NC1=O)NC(=O)[C@H](C)NC(=O)[C@H](CC(=O)O)NC2=O (stereo partly drawn) [I-132, Ac-PL3-Asp-Ala-B5-Asp-Glu-Ala-Ala-Phe-Val-S7-Phe-Trp-Gln-NH2]
4 |  |  |  |  | 1630 | 1630 | 1.9 | 46 (≈ 92.1 µg/mL) | CC(=O)N1CCC[C@]12CC=CCCCC1(CCCC=CCCCOC(=O)N3CC[C@@](C(=O)N[C@@H](Cc4ccsc4)C(=O)N[C@@H](Cc4csc5ccccc45)C(=O)N[C@@H](CCO)C(N)=O)(C3)NC(=O)[C@H](CC(N)=O)NC(=O)[C@H](Cc3ccccc3)NC(=O)[C@H](C)NC(=O)[C@H](C)NC(=O)[C@H](CN(CC(=O)O)CC(F)(F)F)NC(=O)[C@H](CC(=O)O)NC1=O)NC(=O)[C@H](CC(C)(C)C)NC(=O)[C@H](CC(=O)O)NC2=O (stereo partly drawn) [I-950, Ac-PL3-Asp-Npg-B5-Asp-TfeGA-Ala-Ala-Phe-Asn-PyrS2-3Thi-BztA-Hse-NH2]
5 | 58 | 2.34 |  |  |  |  |  | 50 (≈ 95.6 µg/mL) | CC(=O)N1CCC[C@]12CC=CCCCC1(CCCC=CCCCCCC[C@@](C)(C(=O)N[C@@H](Cc3ccccc3)C(=O)N[C@@H](Cc3csc4ccccc34)C(=O)N[C@@H](CCC(N)=O)C(N)=O)NC(=O)[C@H](CCCNC(N)=O)NC(=O)[C@H](Cc3ccccc3)NC(=O)[C@H](C)NC(=O)[C@H](C)NC(=O)[C@H](CCC(=O)O)NC(=O)[C@H](CC(=O)O)NC1=O)NC(=O)[C@H](CC(C)C)NC(=O)[C@H](CC(=O)O)NC2=O (stereo partly drawn) [I-621, Ac-PL3-Asp-Leu-B5-Asp-Glu-Ala-Ala-Phe-Cit-S8-Phe-BztA-Gln-NH2]
6 | 119 | 2 | 49 (≈ 91.7 µg/mL) |  |  |  |  |  | CC(=O)N1CCC[C@]12CC=CCCCC1(CCCC=CCCCCCC[C@@](C)(C(=O)N[C@@H](Cc3ccccc3)C(=O)N[C@@H](Cc3csc4ccccc34)C(=O)N[C@@H](CCC(N)=O)C(N)=O)NC(=O)[C@H](CCC(N)=O)NC(=O)[C@H](Cc3ccccc3)NC(=O)[C@H](C)NC(=O)[C@H](C)NC(=O)[C@H](CCC(=O)O)NC(=O)[C@H](CC(=O)O)NC1=O)NC(=O)[C@H]([C@@H](C)O)NC(=O)[C@H](CC(=O)O)NC2=O (stereo partly drawn) [I-477, Ac-PL3-Asp-Thr-B5-Asp-Glu-Ala-Ala-Phe-Gln-S8-Phe-BztA-Gln-NH2]
